Source: paper PMC11938010, “Positive Charge in an Antimalarial Compound Unlocks Broad-Spectrum Antibacterial Activity” (JACS Au, 2025)
Values after ≈ are worked out from the molar mass of the structure shown. Read-outs that look alike come from different tables or passages of the source.

Experiments:
[1] = system: Staphylococcus aureus ssp. Aureus; test: In vitro antibacterial activity (MIC), S. aureus; assay type: cell-based; conditions: Staphylococcus aureus, read-out: Sa MIC95
in vitro = conditions: human
[2] = system: Streptococcus pneumoniae (DSM20566); test: In vitro antibacterial activity (MIC), S. pneumoniae; assay type: cell-based; conditions: Streptococcus pneumoniae, DSM20566, read-out: Sp MIC95
[3] = system: Plasmodium falciparum NF54; test: P. falciparum in vitro drug sensitivity assay on asexual blood stage parasites ([3H]-hypoxanthine incorporation); assay type: cell-based; conditions: for IC50: read-out: PfNF54 IC50
Escherichia coli ∆tolC = test: microbe, parasite or virus in culture; assay type: cell-based; conditions: for MIC / inhibition at 50 µM: Escherichia coli; for inhibition at 50 µM: read-out: Ec∆tolC inh. at 50 µM (%)
[4] = system: Mycobacterium tuberculosis (Mtb) strain H37Rv; test: microbe, parasite or virus in culture; assay type: cell-based; conditions: 168 h, 7 days, footnote b: not active at maximum solubility, read-out: MtbH37Rv MIC90
E. coli K12 = test: In vitro antibacterial activity (growth inhibition, OD600), E. coli wild-type; assay type: cell-based; conditions: Escherichia coli, K12, 50 µM; Table S1, with standard deviation; read-out: EcK12 inh. at 50 µM (%)
Acinetobacter baumannii = test: In vitro antibacterial activity (growth inhibition, OD600), A. baumannii; assay type: cell-based; conditions: 50 µM, Table S1, with standard deviation, read-out: Ab inh. at 50 µM (%)
[5] = system: Pseudomonas aeruginosa PA14; test: In vitro antibacterial activity (growth inhibition, OD600), P. aeruginosa; assay type: cell-based; conditions: PA14, 50 μM compound, Table 1 and main text, read-out: PA14 inh. at 50 μM
[6] = Table S2, with standard deviation
[7] = Plasmodium falciparum, NF54, Table 1 and main text

Row | Compound | MIC ([1]; Table 1 and main text) [µM] | MIC [1, 6] [µM] | CC50 (in vitro; HepG2 CC50, 48 h, MTT) [µM] | MIC ([2]; Table 1 and main text) [µM] | MIC [2, 6] [µM] | IC50 [3, 7] [µM] | IC50 ([3]; Table 1 and main text) [µM] | MIC (Escherichia coli ∆tolC; read-out: EcΔtolC MIC95) [µM] | inhibition at 50 µM (Escherichia coli ∆tolC) [%] | MIC90 [4] [µM] | PfNF54 IC50 ([3]; Table 1 and main text) | inhibition at 50 µM (E. coli K12) [%] | CC50 (in vitro; HepG2 CC50 (µM), Table S2, with standard deviation) [µM] | inhibition at 50 µM (Acinetobacter baumannii) [%] | inhibition at 50 µM [5] [%] | MIC (Escherichia coli ∆tolC; read-out: Ec∆tolC MIC95 (µM)) [µM] | EcΔtolC MIC95 (Escherichia coli ∆tolC; Table 1 and main text) [µM]
1 | Cc1ccc(NC(=O)c2cc(-c3cc(Cl)ccc3O)[nH]n2)cc1 [Compound 1d] | > 50 | > 50 | > 50 | > 50 | > 50 | > 2 | 2.4 | > 50 | < 10 | – | – | – | – | – | – | – | –
2 | O=C(c1cc(-c2cc(Cl)ccc2O)[nH]n1)N1CCOCC1 [Compound 1e] | > 50 | > 50 | > 50 | > 50 | > 50 | > 5 | – | > 50 | 23 ± 3 | > 16 | inactive | – | – | – | – | – | –
3 | CC(C)(C)OC(=O)N1CCN(Cc2cccc(NC(=O)c3cc(-c4cc(Cl)ccc4O)[nH]n3)c2)CC1 [Compound 3B] | > 50 | > 50 | 25 | > 50 | > 50 | 1 | – | > 50 | – | – | – | < 10 | – | – | – | – | –
4 | CC(C)(C)OC(=O)N1CCN(Cc2ccc(NC(=O)c3cc(-c4cc(Cl)ccc4O)[nH]n3)cc2)CC1 [Compound 4B] | > 50 | > 50 | 7 | > 50 | > 50 | 0.2 | – | > 50 | – | – | – | 17 ± 13 | 7.4 ± 0.7 | – | – | – | –
5 | CC(C)(C)OC(=O)N1CCN(c2cccc(NC(=O)c3cc(-c4cc(Cl)ccc4O)[nH]n3)c2)CC1 [Compound 5B] | > 50 | > 50 | > 50 | > 50 | > 50 | 0.9 | – | > 50 | 19 ± 14 | – | – | < 10 | – | – | – | – | –
6 | CC(C)(C)OC(=O)N1CCN(c2ccc(NC(=O)c3cc(-c4cc(Cl)ccc4O)[nH]n3)cc2)CC1 [Compound 6B] | > 50 | > 50 | > 50 | > 50 | > 50 | 1.61 | – | > 50 | < 10 | – | – | – | – | – | – | – | –
7 | CC(C)(C)OC(=O)NCc1cccc(NC(=O)c2cc(-c3cc(Cl)ccc3O)[nH]n2)c1 [Compound 7B] | > 50 | > 50 | > 50 | > 50 | > 50 | 1.1 | – | > 50 | < 10 | – | – | < 10 | – | – | – | – | –
8 | CC(C)(C)OC(=O)N1CCN=C1NCc1ccc(NC(=O)c2cc(-c3cc(Cl)ccc3O)[nH]n2)cc1 [Compound 8D] | > 50 | > 50 | > 50 | > 50 | > 50 | – | – | > 50 | 18.5 ± 0.8 | > 64 | – | – | – | – | – | – | –
9 | CC(C)(C)OC(=O)NCc1cc(NC(=O)c2cc(-c3cc(Cl)ccc3O)[nH]n2)cc(C(F)(F)F)c1 [Compound 9B, tert-Butyl (3-(5-(5-chloro-2-hydroxyphenyl)-1H-pyrazole-3-carboxamido)-5-(trifluoromethyl)benzyl)carbamate] | > 50 | > 50 | 5 | 30 (≈ 15.3 µg/mL) | 30 ± 5 (≈ 15.3 µg/mL) | 0.203 | – | > 50 | 48 ± 8 | > 64 | – | – | – | – | – | – | –
10 | CC(C)(C)OC(=O)N1CCN=C1NCc1cc(NC(=O)c2cc(-c3cc(Cl)ccc3O)[nH]n2)cc(C(F)(F)F)c1 [Compound 9D] | 12 (≈ 6.95 µg/mL) | 12 ± 3 (≈ 6.95 µg/mL) | 14 | 21 (≈ 12.2 µg/mL) | 21 ± 9 (≈ 12.2 µg/mL) | 0.15 | – | 24 (≈ 13.9 µg/mL) | – | 16 (≈ 9.26 µg/mL) | – | – | – | 81.6 ± 0.6 | 21 | 24 (≈ 13.9 µg/mL) | 24.0
11 | CC(C)(C)OC(=O)NCc1ccc(NC(=O)c2cc(-c3cc(Cl)ccc3O)[nH]n2)cc1C(F)(F)F [Compound 10B, tert-Butyl (4-(5-(5-chloro-2-hydroxyphenyl)-1H-pyrazole-3-carboxamido)-2-(trifluoromethyl)benzyl)carbamate] | > 50 | > 50 | > 50 | > 50 | > 50 | 0.19 | – | > 50 | < 10 | – | – | < 10 | – | < 10 | – | – | –
12 | CC(C)(C)OC(=O)N1CCN(c2cc(NC(=O)c3cc(-c4cc(Cl)ccc4O)[nH]n3)ccc2C(F)(F)F)CC1 [Compound 13B, tert-Butyl 4-(5-(5-(5-chloro-2-hydroxyphenyl)-1H-pyrazole-3-carboxamido)-2-(trifluoromethyl)phenyl)piperazine-1-carboxylate] | > 50 | – | 2.8 | > 50 | – | 0.342 | – | > 50 | < 10 | – | – | – | – | – | – | – | –
13 | O=C(c1cc(-c2cc(Cl)ccc2O)[nH]n1)N1CCNCC1 [Compound 14A, (5-(5-Chloro-2-hydroxyphenyl)-1H-pyrazol-3-yl)(piperazin-1-yl)methanone] | > 50 | > 50 | > 50 | > 50 | > 50 | 3.3 | – | > 50 | 18 ± 4 | > 16 | inactive | – | – | – | – | – | –
14 | N=C(N)N1CCN(C(=O)c2cc(-c3cc(Cl)ccc3O)[nH]n2)CC1 [Compound 14G] | > 50 | > 50 | > 50 | > 50 | > 50 | > 5 | – | > 50 | 18 ± 9 | > 64 | inactive | – | – | – | – | – | –
